According to PubChem BioAssay AID2060505 (Molecular Pharmacology Branch, DTP, NCI, 2025):

Test system: 633275-114-R-J1-PDC complex spheroids, viability
Test: Anticancer human tumor 633275-114-R-J1-PDC patient-derived endometrial adenocarcinoma cell line growth inhibition [GQUAD]
Conditions: for IC50: curve of first compound; for viability, T/C: stronger effect = lower value
Summary of the method: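 Viability of tumor cells grown as complex spheroids with endothelial and stromal cells, exposed to drug combinations. Top concentration at or near clinical Cmax (else 10 microM), diluted in half-log increments.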

[1] = second compound 0.0316 µM, first compound 0.0316 µM
[2] = second compound 0.0316 µM, first compound 0.316 µM
[3] = second compound 0.1 µM, first compound 0.0316 µM
[4] = second compound 0.1 µM, first compound 0.316 µM
[5] = second compound 0.316 µM, first compound 0.0316 µM
[6] = second compound 0.316 µM, first compound 0.316 µM
[7] = second compound 1 µM, first compound 0.0316 µM
[8] = second compound 1 µM, first compound 0.316 µM
[9] = second compound 3.16 µM, first compound 0.0316 µM
[10] = second compound 3.16 µM, first compound 0.316 µM
[11] = second compound 10 µM, first compound 0.0316 µM
[12] = second compound 10 µM, first compound 0.316 µM
[13] = second compound 0.0316 µM, first compound 0.1 µM
[14] = second compound 0.0316 µM, first compound 1 µM
[15] = second compound 0.0316 µM, first compound 3.16 µM
[16] = second compound 0.0316 µM, first compound 10 µM
[17] = second compound 0.1 µM, first compound 0.1 µM
[18] = second compound 0.1 µM, first compound 1 µM
[19] = second compound 0.1 µM, first compound 3.16 µM
[20] = second compound 0.1 µM, first compound 10 µM
[21] = second compound 0.316 µM, first compound 0.1 µM
[22] = second compound 0.316 µM, first compound 1 µM
[23] = second compound 0.316 µM, first compound 3.16 µM
[24] = second compound 0.316 µM, first compound 10 µM
[25] = second compound 1 µM, first compound 0.1 µM
[26] = second compound 1 µM, first compound 1 µM
[27] = second compound 1 µM, first compound 3.16 µM
[28] = second compound 1 µM, first compound 10 µM
[29] = second compound 3.16 µM, first compound 0.1 µM
[30] = second compound 3.16 µM, first compound 1 µM
[31] = second compound 3.16 µM, first compound 3.16 µM
[32] = second compound 3.16 µM, first compound 10 µM
[33] = second compound 10 µM, first compound 0.1 µM
[34] = second compound 10 µM, first compound 1 µM
[35] = second compound 10 µM, first compound 3.16 µM
[36] = second compound 10 µM, first compound 10 µM
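Further: spheroids exposed to the agents for seven days.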
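Wherever viability, T/C is given: percent of DMSO vehicle control viability which is 100%.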

Cn1ncnc1[C@H]1c2n[nH]c(=O)c3cc(F)cc(c23)N[C@@H]1c1ccc(F)cc1 + Cc1[nH]c2ccc(F)cc2c1-c1nc2c3cccnc3c3ncccc3c2[nH]1
IC50 (second compound 0.0316 µM): > 0.316 µM | IC50 (second compound 0.1 µM): > 0.316 µM | IC50 (second compound 0.316 µM): > 0.316 µM | IC50 (second compound 1 µM): > 0.316 µM | IC50 (second compound 3.16 µM): 0.257 µM | IC50 (second compound 10 µM): > 0.316 µM | viability, T/C (second compound 0.0316 µM, first compound 0.000999 µM): 96.6% | viability, T/C (second compound 0.0316 µM, first compound 0.00316 µM): 83.2% | viability, T/C (second compound 0.0316 µM, first compound 0.00999 µM): 83.7% | viability, T/C [1]: 75.4% | viability, T/C (second compound 0.0316 µM, first compound 0.0999 µM): 66.8% | viability, T/C [2]: 64.4% | viability, T/C (second compound 0.1 µM, first compound 0.000999 µM): 93% | viability, T/C (second compound 0.1 µM, first compound 0.00316 µM): 93% | viability, T/C (second compound 0.1 µM, first compound 0.00999 µM): 91.7% | viability, T/C [3]: 75.5% | viability, T/C (second compound 0.1 µM, first compound 0.0999 µM): 67.1% | viability, T/C [4]: 57.6% | viability, T/C (second compound 0.316 µM, first compound 0.000999 µM): 92.7% | viability, T/C (second compound 0.316 µM, first compound 0.00316 µM): 92% | viability, T/C (second compound 0.316 µM, first compound 0.00999 µM): 82.6% | viability, T/C [5]: 82.4% | viability, T/C (second compound 0.316 µM, first compound 0.0999 µM): 69.1% | viability, T/C [6]: 57.2% | viability, T/C (second compound 1 µM, first compound 0.000999 µM): 91% | viability, T/C (second compound 1 µM, first compound 0.00316 µM): 85.4% | viability, T/C (second compound 1 µM, first compound 0.00999 µM): 79.1% | viability, T/C [7]: 72.6% | viability, T/C (second compound 1 µM, first compound 0.0999 µM): 66.6% | viability, T/C [8]: 54.2% | viability, T/C (second compound 3.16 µM, first compound 0.000999 µM): 74% | viability, T/C (second compound 3.16 µM, first compound 0.00316 µM): 66.6% | viability, T/C (second compound 3.16 µM, first compound 0.00999 µM): 65.1% | viability, T/C [9]: 61.2% | viability, T/C (second compound 3.16 µM, first compound 0.0999 µM): 52.3% | viability, T/C [10]: 49.4% | viability, T/C (second compound 10 µM, first compound 0.000999 µM): 73.7% | viability, T/C (second compound 10 µM, first compound 0.00316 µM): 77.7% | viability, T/C (second compound 10 µM, first compound 0.00999 µM): 66.5% | viability, T/C [11]: 60.2% | viability, T/C (second compound 10 µM, first compound 0.0999 µM): 55.9% | viability, T/C [12]: 51.8%

COc1ncnc(C2CC2)c1-c1ncc2cnn(Cc3ccc(-c4nc(C(F)(F)F)cn4C(C)C)cc3)c2n1 + Cc1[nH]c2ccc(F)cc2c1-c1nc2c3cccnc3c3ncccc3c2[nH]1
IC50 (second compound 0.0316 µM): > 10 µM | IC50 (second compound 0.1 µM): > 10 µM | IC50 (second compound 0.316 µM): > 10 µM | IC50 (second compound 1 µM): > 10 µM | IC50 (second compound 3.16 µM): > 10 µM | IC50 (second compound 10 µM): > 10 µM | viability, T/C [1]: 95.6% | viability, T/C [13]: 91.5% | viability, T/C [2]: 100% | viability, T/C [14]: 93.2% | viability, T/C [15]: 91.4% | viability, T/C [16]: 89.8% | viability, T/C [3]: 98.2% | viability, T/C [17]: 102% | viability, T/C [4]: 89.5% | viability, T/C [18]: 96.7% | viability, T/C [19]: 92.1% | viability, T/C [20]: 87.7% | viability, T/C [5]: 93.4% | viability, T/C [21]: 87.9% | viability, T/C [6]: 87.3% | viability, T/C [22]: 82.3% | viability, T/C [23]: 99.7% | viability, T/C [24]: 91.8% | viability, T/C [7]: 86.7% | viability, T/C [25]: 90% | viability, T/C [8]: 93.2% | viability, T/C [26]: 81.3% | viability, T/C [27]: 93.5% | viability, T/C [28]: 87.1% | viability, T/C [9]: 70% | viability, T/C [29]: 78.4% | viability, T/C [10]: 64.1% | viability, T/C [30]: 62.7% | viability, T/C [31]: 73.2% | viability, T/C [32]: 67% | viability, T/C [11]: 59.8% | viability, T/C [33]: 63.1% | viability, T/C [12]: 56% | viability, T/C [34]: 60.5% | viability, T/C [35]: 62.3% | viability, T/C [36]: 60.3%

CC(=O)O[C@H]1C(=O)[C@@]2(C)[C@H]([C@H](OC(=O)c3ccccc3)[C@]3(O)C[C@H](OC(=O)[C@H](O)[C@@H](NC(=O)c4ccccc4)c4ccccc4)C(C)=C1C3(C)C)[C@]1(OC(C)=O)CO[C@@H]1C[C@@H]2O + Cc1cnc(CNC(=O)c2c(=O)c3ccc(N4CCCN(C)CC4)nc3n3c2sc2ccccc23)cn1
IC50 (second compound 0.0316 µM): < 0.0316 µM | IC50 (second compound 0.1 µM): < 0.0316 µM | IC50 (second compound 0.316 µM): < 0.0316 µM | IC50 (second compound 1 µM): < 0.0316 µM | IC50 (second compound 3.16 µM): < 0.0316 µM | IC50 (second compound 10 µM): < 0.0316 µM | viability, T/C [1]: 43.8% | viability, T/C [13]: 30.5% | viability, T/C [2]: 27.4% | viability, T/C [14]: 25.1% | viability, T/C [15]: 24.9% | viability, T/C [16]: 25.6% | viability, T/C [3]: 42.3% | viability, T/C [17]: 37.3% | viability, T/C [4]: 32.8% | viability, T/C [18]: 35.2% | viability, T/C [19]: 33.9% | viability, T/C [20]: 34.1% | viability, T/C [5]: 43.5% | viability, T/C [21]: 39.3% | viability, T/C [6]: 41.7% | viability, T/C [22]: 38.2% | viability, T/C [23]: 35.8% | viability, T/C [24]: 35.3% | viability, T/C [7]: 38.5% | viability, T/C [25]: 37.4% | viability, T/C [8]: 39.3% | viability, T/C [26]: 43.2% | viability, T/C [27]: 35.1% | viability, T/C [28]: 36.2% | viability, T/C [9]: 39% | viability, T/C [29]: 35% | viability, T/C [10]: 35.8% | viability, T/C [30]: 39.7% | viability, T/C [31]: 35.8% | viability, T/C [32]: 32.6% | viability, T/C [11]: 31.1% | viability, T/C [33]: 28.7% | viability, T/C [12]: 27.5% | viability, T/C [34]: 31.7% | viability, T/C [35]: 32.4% | viability, T/C [36]: 30.8%

CC(=O)O[C@H]1C(=O)[C@@]2(C)[C@H]([C@H](OC(=O)c3ccccc3)[C@]3(O)C[C@H](OC(=O)[C@H](O)[C@@H](NC(=O)c4ccccc4)c4ccccc4)C(C)=C1C3(C)C)[C@]1(OC(C)=O)CO[C@@H]1C[C@@H]2O + CN(C)c1ccc(Nc2c3ccc(NC(=O)CCN4CCCC4)cc3nc3cc(NC(=O)CCN4CCCC4)ccc23)cc1
IC50 (second compound 0.0316 µM): < 0.0316 µM | IC50 (second compound 0.1 µM): < 0.0316 µM | IC50 (second compound 0.316 µM): < 0.0316 µM | IC50 (second compound 1 µM): < 0.0316 µM | IC50 (second compound 3.16 µM): < 0.0316 µM | IC50 (second compound 10 µM): < 0.0316 µM | viability, T/C [1]: 48.9% | viability, T/C [13]: 26.1% | viability, T/C [2]: 18.4% | viability, T/C [14]: 22.6% | viability, T/C [15]: 20.9% | viability, T/C [16]: 22.7% | viability, T/C [3]: 48.3% | viability, T/C [17]: 27.3% | viability, T/C [4]: 21.6% | viability, T/C [18]: 18.9% | viability, T/C [19]: 20.5% | viability, T/C [20]: 23.5% | viability, T/C [5]: 46.4% | viability, T/C [21]: 23.6% | viability, T/C [6]: 21.2% | viability, T/C [22]: 19.1% | viability, T/C [23]: 20.7% | viability, T/C [24]: 20.4% | viability, T/C [7]: 45.9% | viability, T/C [25]: 25.5% | viability, T/C [8]: 17.5% | viability, T/C [26]: 18.8% | viability, T/C [27]: 22.4% | viability, T/C [28]: 20.8% | viability, T/C [9]: 41.4% | viability, T/C [29]: 22.8% | viability, T/C [10]: 20.4% | viability, T/C [30]: 21.3% | viability, T/C [31]: 19.6% | viability, T/C [32]: 19.8% | viability, T/C [11]: 23.8% | viability, T/C [33]: 15.3% | viability, T/C [12]: 13.8% | viability, T/C [34]: 11.8% | viability, T/C [35]: 15.2% | viability, T/C [36]: 12.9%
